Earlier results on one compound are cited in US20240285702A1, “Compositions comprising a cannabinoid and uses thereof” (Cannabotech Ltd., priority 2021, published 2024).

In brackets after ≈: the same amount, converted by molar mass.

Usually Log P stands for the decadic logarithm of the partition coefficient of the neutral form, usually between octanol and water. As for `C=C(C)[C@@H]1CCC(C)=C[C@H]1c1c(O)cc(CCCCC)cc1O` [CBD, 2-[(1R,6R)-6-isopropenyl-3-methylcyclohex-2-en-1-yl]-5-pentylbenzene-1,3-diol], the “Log P” value is 5.8 and the water solubility was 0.7 µg/mL (≈ 2.23 µM).
